The target in this assay is Hsp90 co-chaperone Cdc37 (Homo sapiens) (UniProt Q16543). Description: disruption of Hsp90-CDC37 complex, late-stage follow-up, mechanism study for selective HSP90 inhibitor project, cell-based, chemiluminescence western blot, co-immunoprecipitation (AID 687006). The conditions noted are these: MCF7 cells, Hsp90 co-IP CDC37 western blot, 24 h, stronger effect = higher value.

Calls of active or inactive are those of the source.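 The calls were made as follows: active = over 50% breakup of the Hsp90 and CDC37 protein complex, measured by pull-down and western blot; inactive = complex breakup under 10%.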

Sequence of Hsp90 co-chaperone Cdc37 (Homo sapiens) (Q16543 whole entry, looked up): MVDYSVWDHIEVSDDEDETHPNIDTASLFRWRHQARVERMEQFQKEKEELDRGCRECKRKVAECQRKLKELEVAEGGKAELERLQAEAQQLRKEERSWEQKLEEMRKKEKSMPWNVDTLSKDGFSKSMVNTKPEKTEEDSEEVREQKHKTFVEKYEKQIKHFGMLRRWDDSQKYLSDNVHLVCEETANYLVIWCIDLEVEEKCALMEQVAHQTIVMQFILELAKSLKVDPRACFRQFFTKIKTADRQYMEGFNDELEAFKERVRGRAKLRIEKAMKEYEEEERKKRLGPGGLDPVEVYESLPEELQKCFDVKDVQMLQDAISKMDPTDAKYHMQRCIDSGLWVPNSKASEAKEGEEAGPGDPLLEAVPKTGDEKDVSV

`CC(=O)c1ccc(NC(=O)c2coc(=O)c(Br)c2)cc1`: the complex disruption (high dose (five times the growth IC50) 53.5 µM, low dose (half the growth IC50) 5.4 µM) is greater than 50%.

As to `CC(C)CNC(=O)c1coc(=O)c(Br)c1`, for the setting “high dose (five times the growth IC50) 37.5 µM, low dose (half the growth IC50) 3.8 µM”, the complex disruption is greater than 50%.

With `COc1ccc(NC(=O)c2coc(=O)c(Br)c2)cc1`, where the note is “high dose (five times the growth IC50) 12 µM, low dose (half the growth IC50) 1.2 µM”, the complex disruption is greater than 50%.

Regarding `O=C(NCCc1ccc(F)cc1)c1coc(=O)c(Br)c1`, the complex disruption (high dose (five times the growth IC50) 10.5 µM, low dose (half the growth IC50) 1.1 µM) was < 10% (inactive).

For the compound `Cc1cccc(NC(=O)c2coc(=O)c(Br)c2)n1`, the complex disruption (high dose (five times the growth IC50) 136.5 µM, low dose (half the growth IC50) 13.7 µM) is < 10% (inactive).

Take `CC(NC(=O)c1coc(=O)c(Br)c1)C1C2CCC3CC(C2)CC31` (centres undefined): for the setting “high dose (five times the growth IC50) 9 µM, low dose (half the growth IC50) 0.9 µM”, the complex disruption is < 10% (inactive).

`O=C(NCc1cccnc1)c1coc(=O)c(Br)c1`: the complex disruption (high dose (five times the growth IC50) 17.5 µM, low dose (half the growth IC50) 1.8 µM) is < 10% (inactive).

`O=C(Nc1ccc(F)cc1)c1coc(=O)c(Br)c1`: where the note is “high dose (five times the growth IC50) 17 µM, low dose (half the growth IC50) 1.7 µM”, the complex disruption was < 10% (inactive).

`O=C(Nc1ccccc1I)c1coc(=O)c(Br)c1`: the complex disruption (high dose (five times the growth IC50) 147 µM, low dose (half the growth IC50) 14.7 µM) is < 10% (inactive).

For `O=C(NCc1ccco1)c1coc(=O)c(Br)c1`, for the setting “high dose (five times the growth IC50) 24 µM, low dose (half the growth IC50) 2.4 µM”, the complex disruption was < 10% (inactive).

With `CCCCCCCCOc1ccc(NC(=O)c2coc(=O)c(Br)c2)cc1`, the complex disruption (high dose (five times the growth IC50) 64.5 µM, low dose (half the growth IC50) 6.5 µM) is greater than 50%.

`CCCCOc1cccc(NC(=O)c2coc(=O)c(Br)c2)c1`: the complex disruption (high dose (five times the growth IC50) 114 µM, low dose (half the growth IC50) 11.4 µM) is < 10% (inactive).

For the compound `Cc1cc(NC(=O)c2coc(=O)c(Br)c2)ccc1C(C)C`, the complex disruption (high dose (five times the growth IC50) 44.5 µM, low dose (half the growth IC50) 4.5 µM) was < 10% (inactive).

As to `COc1ccc(NC(=O)c2ccc(NC(=O)c3coc(=O)c(Br)c3)cc2)cc1`, under “high dose (five times the growth IC50) 60.5 µM, low dose (half the growth IC50) 6.1 µM”, the complex disruption is greater than 50%.
